Each structure is given as a SMILES string. Values after ≈ are worked out from the molar mass of the structure shown. Like-named read-outs stand apart in the source and are kept apart here.

Series [1] relates to P. aeruginosa T3SS-mediated secretion (exoT-luxCDABE reporter strain MDM852). The series can be described thus: Luciferase (exoT-lux) transcriptional reporter assay of T3SS-mediated secretion. The format is cell-based, Pseudomonas aeruginosa. The following applies: read-out: LUX Sec IC50; Table 1. An excerpt:
Luciferase Transcriptional Reporter Assay of T3SS-Mediated Secretion with a Luminescent Signal.
A transcriptional fusion of the Photorhabdus luminescens lux operon (luxCDABE) to P. aeruginosa PAO1 T3SS effector gene exoT (PA0044) was constructed and used to build strain MDM852 as described previously (Aiello et al., 2010, Antimicrob Agents Chemother, 54:1988-1999). Induction of T3SS operons by Ca^++ depletion due to EGTA addition results in secretion of the T3SS negative regulator ExsE and the production of high levels of T3SS components including the luxCDABE gene products, which results in luminescence that is easily detected by a microplate reader. Inhibition of T3SS-mediated secretion of the negative regulator ExsE by a small molecule inhibitor causes reduced production of luxCDABE gene products and reduced luminescence. For inhibitor IC50 testing, compounds were added to a 96-well microplate in a concentration dilution series. Reporter strain MDM852 was grown at 37° C. in LBG to OD600 ~0.025-0.05, transferred into the microplate (50 uL/well) containing test compounds and EGTA (5 uL of 0.1 M stock solution), which was covered with a translucent gas-permeable seal (Abgene, Inc., Cat. No. AB-0718). […] Plates were incubated at room temperature for 300 min. Then, luminescence was measured in an Envision Multilabel microplate reader (PerkinElmer). The screening window coefficient, Z′-factor (see Zhang, et al., 1999, J. Biomol. Screen., 4:67-73), defined as the ratio of the positive and negative control separation band to the signal dynamic range of the assay, averaged 0.7 for the assay.

A short description of series [2]: Kinetic aqueous solubility (nephelometric assay). The class given is physicochemical. The following applies: Table 1. An excerpt: Solubility. The maximum aqueous solubility of analogs will be initially determined by nephelometry using a published method (44).
Another series has as its system HeLa cells. In words: Mammalian cytotoxicity (CC50), MTS conversion. The format is cell-based, human. The note with it: assessment in text on Table 1. The protocol:
(§1) Determination of Mammalian Cytotoxicity.
(§2) Following incubation for 3 days at 37° C. in VP-SFM, cell viability was measured with the vital tetrazolium salt stain 3-(4,5-dimethylthiazol-2-yl)-2,5 diphenyltetrazolium bromide according to the manufacturer's instructions (Promega, Madison, Wisconsin). Values were determined in triplicate using dilutions of inhibitory compound from 100 μM to 0.2 μM.

A short description of series [3]: Mammalian cytotoxicity (CC50), MTS conversion. The class given is cell-based, human. The following applies: human, HeLa cells, Table 1; HeLa; read-out: Cytotox-HeLa CC50. As to the method: as §1, §2
Series [4] relates to T3SS-mediated translocation of ExoU by P. aeruginosa strain MDM1561 (PA99U) into CHO cells. In words: P. aeruginosa ExoU-dependent CHO cell killing assay for T3SS-mediated translocation. The note with it: read-out: Translocation EC50. The format is cell-based, Pseudomonas aeruginosa. An excerpt:
P. aeruginosa ExoU-Dependent CHO Cell Killing.

In series [5] the test system is P. aeruginosa T3SS-mediated secretion of ExoS-β-lactamase fusion protein. The series can be described thus: Effector-β-lactamase (ExoS-βLA) reporter assay of T3SS-mediated secretion. The class given is cell-based, Pseudomonas aeruginosa. The following applies: read-out: ExoS-BLA IC50; Table 1. From the text:
Effector-β-Lactamase (βLA) Reporter Assay of T3SS-Mediated Secretion with an Absorbency Signal.
A gene encoding the exoS promoter/regulatory region and an ExoS-β-lactamase (βLA) fusion protein (comprised of the full length P. aeruginosa T3SS effector ExoS fused in reading frame to the TEM-1 β-lactamase gene lacking secretion signal codons) was constructed by splicing by overlap extension PCR (SOE-PCR) (Choi and Schweizer, 2005, BMC Microbiol., 5:30), sequence confirmed, cloned into miniCTX and introduced into P. aeruginosa strain PAO1 to generate strains MDM1746 and MDM1838 as previously described for strain MDM1710 (Bowlin et al., 2014, Antimicrob Agents Chemother., 58:2211-2220). Secretion of ExoS-β-lactamase fusion protein following EGTA addition to induce the T3SS operons was detected by measuring the hydrolysis of the chromogenic β-lactamase substrate nitrocefin in clear 96-well microplates in a modification of a previously described assay (Lee, et al., 2007, Infect. Immun., 75:1089-98). Cells of strain MDM1746, or negative control MDM1838 (which fails to carry out T3SS secretion due to ΔpscF), were sub-cultured in the morning from overnight growths in LBG into 0.1 ml of LBGE with or without test compounds and grown for 150 min. Nitrocefin (100 μg/mL final) was added, and A490 measurements taken every minute for 15 min in a Victor^3V 1420 Multilabel HTS Counter (PerkinElmer). Slopes were calculated as a relative measure of the quantity of the effector-βLA fusion protein secreted and were absolutely dependent on induction with EGTA, and the presence of a functional pscF gene in the P. aeruginosa cells. Typical signal: background ratios were 6-10.
In general terms: In a reporter assay the amount or activity of a reporter protein is the signal.

The nature of series [6]: Single dose pharmacokinetic (PK) determination in mice. Details: species or system CD-1 mice. The following applies: in vivo.
The subject of series [7] is T3SS translocation, clinical isolates of Pseudomonas aeruginosa.

On to `CC(Oc1ccc(Cl)cc1Cl)C(=O)NCc1cc2ccccc2[nH]1` (stereo not drawn) [MBX-2624], for which the 50% inhibitory concentration (IC50) in series [1] worked out at 8.7 µM; in series [5], 9 µM. The same compound showed a Sol in series [2] of 100 µM. Also, the “cytotoxicity” value in the series on HeLa cells was “exhibit cytotoxicity”. The half-maximal cytotoxic concentration (CC50) at 3 days in series [3] was determined as 9 µM. In series [4] (Table 1), the EC50 amounted to 17 µM.

`CC[C@@H](Oc1ncc(Cl)cc1Cl)C(=O)NCc1ccc2cc(CN(C)C)[nH]c2c1` [MBX-2867]: the 50% inhibitory concentration (IC50) in series [1] came out at 1.6 µM; in series [5], 1.3 µM. This compound also returned a Sol in series [2] of 3000 µM. In the series on HeLa cells, the “cytotoxicity” value is “exhibit cytotoxicity”. The half-maximal cytotoxic concentration (CC50) at 3 days in series [3] stood at 30 µM. Further, the half-maximal effective concentration (EC50) in series [4] (Table 1) was 5.8 µM.

As to `CC[C@@H](Oc1ncc(Cl)cc1Cl)C(=O)NCc1ccc2cc(C(=O)N3CCOCC3)[nH]c2c1` [MBX-3458], in series [6], the “half-life in mice” value was “short half-lives in mice”. The 50% inhibitory concentration (IC50) in series [1] worked out at 3.7 µM; in series [5], 0.9 µM. The compound also displayed a Sol in series [2] of 25 µM. In series [3], the half-maximal cytotoxic concentration (CC50) at 3 days was found to be 100 µM. Also, in series [4] (Table 1), the EC50 stood at 5.2 µM.

Regarding `CC[C@@H](Oc1ncc(Cl)cc1Cl)C(=O)NCc1cccc(NC(=O)NC2CC3(C2)CN(CCC(=O)O)C3)c1` [MBX-5452A], the EC50 in series [4] (Table 1) was 2.7 µM; in series [4] (Table 6) it was 2.7 µM; in series [7], 0.74 µg/mL (≈ 1.31 µM).

What is called IC50 is the midpoint of a concentration-inhibition curve. As usually defined, the CC50 is the concentration at which the toxic effect on the cells reaches its halfway point. Usually EC50 stands for the concentration needed to bring the measured effect to its halfway point.

These data come from patent publication US20260248774A1, “INHIBITORS OF BACTERIAL TYPE III SECRETION SYSTEM” (MICROBIOTIX, INC., priority 2022, published 2026).
